A word on the GI50: it is the concentration at which growth is held to half of that of the control.

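Five concentrations, 48 hours, 96-well plates. At the GI50, growth is halved.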 Active and inactive are the calls of the source. Cut-off read from the data, not from the text of the source: active = GI50 up to about 1.1 µM and inactive = higher.

Test systems include 786-0; A549; CAKI-1; HCC 2998; HCT-116; HCT-15; HOP-62; HT-29; Hs-578T; IGROV-1; M14; Malme-3M; NCI-H460; OVCAR-4; OVCAR-5; PC-3; RPMI-8226; SF-539; UACC-257; SNB-19.
Common to all, as to assay: DTP human tumour cell line panel, 48 h

On to `Cn1c(=O)c2[nH]c(N=O)nc2n(C)c1=O`, for which the GI50 with 786-0 was > 100 µM (inactive); in the experiment with A549 it was > 100 µM (inactive); with CAKI-1 it was > 100 µM (inactive); in the experiment with HCC 2998, > 100 µM (inactive); in the experiment on HCT-116 it was > 100 µM (inactive); with HCT-15 it was more than 100 µM. The GI50 in the experiment on HOP-62, in the experiment with HT-29, in the experiment with Hs-578T, in the experiment on IGROV-1, in the experiment on M14 and in the experiment on Malme-3M was > 100 µM (inactive) throughout. For the same compound, the GI50 with NCI-H460, in the experiment on OVCAR-4, in the experiment with OVCAR-5, in the experiment with PC-3, in the experiment on RPMI-8226 and in the experiment with SF-539 was > 100 µM (inactive) each time. Further, the GI50 in the experiment on UACC-257 was > 100 µM (inactive).

Turning to `COc1cc(-c2ccccc2)cn2c1nc1ccccc12`, the GI50 with 786-0 is 15.7 µM (inactive); in the experiment with A549, 20 µM (inactive); in the experiment with CAKI-1 it was 19.6 µM (inactive); with HCC 2998, 15.9 µM (inactive); in the experiment with HCT-116 it was 20.9 µM (inactive); with HCT-15 it was 15.3 µM. In addition, the GI50 in the experiment with HOP-62 was 19.9 µM (inactive); in the experiment on HT-29, 17.3 µM (inactive); in the experiment on Hs-578T it was 27.6 µM (inactive); with IGROV-1 it was 25.2 µM (inactive); in the experiment on M14, 20.3 µM (inactive); in the experiment on Malme-3M, 20.2 µM (inactive). Besides, the GI50 with NCI-H460 was 21.2 µM (inactive); in the experiment with OVCAR-5 it was 15 µM (inactive); in the experiment with PC-3, 18.8 µM (inactive); in the experiment with RPMI-8226, 20.9 µM (inactive); with SF-539 it was 26.6 µM (inactive); with SNB-19 it was 23.1 µM (inactive). Moreover, the GI50 with UACC-257 is 22.7 µM (inactive).

In the case of `CC(C)(C)OC(=O)NC(Cc1ccc(OCc2ccccc2)cn1)C(N)=O` (stereo not drawn), the GI50 in the experiment on 786-0 is > 100 µM (inactive); with A549, > 100 µM (inactive); with CAKI-1, > 100 µM (inactive); with HCC 2998 it was > 100 µM (inactive); in the experiment with HCT-116 it was > 100 µM (inactive); in the experiment with HCT-15, 54.7 µM. Further, the GI50 with HOP-62, with HT-29, in the experiment on Hs-578T, with IGROV-1, in the experiment with Malme-3M and with NCI-H460 was > 100 µM (inactive) in each case. Moreover, the GI50 is 45.7 µM (inactive) with OVCAR-4; > 100 µM (inactive) with OVCAR-5; > 100 µM (inactive) in the experiment on PC-3; > 100 µM (inactive) with RPMI-8226; > 100 µM (inactive) with SF-539; > 100 µM (inactive) in the experiment on SNB-19. In addition, the GI50 with UACC-257 is 75.2 µM (inactive).

`COc1ccc(N2C(=O)C3c4[nH]c5c(C)cccc5c4C4CCC(C(C)(C)C)CC4C3C2=O)cc1` (stereo not drawn): the GI50 is 7 µM (inactive) in the experiment on A549; > 10 µM (inactive) in the experiment with CAKI-1; 2.48 µM (inactive) with HCC 2998; 5.01 µM (inactive) in the experiment with HCT-116; more than 10 µM in the experiment with HCT-15; > 10 µM (inactive) in the experiment on HOP-62. The GI50 in the experiment with HT-29 is 2.32 µM (inactive); with Hs-578T, 8.17 µM (inactive); in the experiment with IGROV-1 it was > 10 µM (inactive); in the experiment with M14, > 10 µM (inactive); with Malme-3M, > 10 µM (inactive); in the experiment on NCI-H460 it was 2.83 µM (inactive). The GI50 is > 10 µM (inactive) in the experiment with OVCAR-4; > 10 µM (inactive) in the experiment on OVCAR-5; 3.61 µM (inactive) in the experiment with PC-3; 6 µM (inactive) in the experiment on RPMI-8226; 9.42 µM (inactive) with SF-539; > 10 µM (inactive) in the experiment on SNB-19.

Turning to `CCOC(=O)CCN1C(=O)C(=O)N(c2ccc(OC)cc2)C1=S`, the GI50 was > 100 µM (inactive) with 786-0; > 100 µM (inactive) with A549; > 100 µM (inactive) with CAKI-1; 69.2 µM (inactive) in the experiment on HCC 2998; > 100 µM (inactive) in the experiment on HCT-116; more than 100 µM in the experiment with HCT-15. Also, the GI50 with HOP-62 is > 100 µM (inactive); in the experiment on HT-29, > 100 µM (inactive); in the experiment on Hs-578T it was 47.1 µM (inactive); with IGROV-1, > 100 µM (inactive); with Malme-3M, > 100 µM (inactive); with NCI-H460 it was 53.5 µM (inactive). The GI50 in the experiment with OVCAR-4 is 63 µM (inactive); with OVCAR-5, > 100 µM (inactive); in the experiment on PC-3 it was > 100 µM (inactive); with RPMI-8226 it was > 100 µM (inactive); in the experiment on SF-539, 97.7 µM (inactive); with SNB-19 it was > 100 µM (inactive). In addition, the GI50 in the experiment with UACC-257 was > 100 µM (inactive).

On to `Cc1nnc2n1N=C(c1cc(F)c(Cl)cc1Cl)/C(=C/c1ccc(-c3ccc([N+](=O)[O-])cc3)o1)S2`, for which the GI50 in the experiment with 786-0 was 78.3 µM (inactive); in the experiment with A549 it was > 100 µM (inactive); in the experiment with CAKI-1, > 100 µM (inactive); in the experiment on HCC 2998 it was > 100 µM (inactive); with HCT-116, 46.1 µM (inactive); in the experiment on HCT-15, 53.5 µM. The GI50 in the experiment on HOP-62 was > 100 µM (inactive); with HT-29, 69.2 µM (inactive); in the experiment with Hs-578T, > 100 µM (inactive); in the experiment with IGROV-1, > 100 µM (inactive); with M14 it was > 100 µM (inactive); with Malme-3M, > 100 µM (inactive). In addition, the GI50 in the experiment with NCI-H460 was > 100 µM (inactive); with OVCAR-4 it was 66.5 µM (inactive); with OVCAR-5 it was > 100 µM (inactive); with PC-3, 47.4 µM (inactive); with RPMI-8226, 34 µM (inactive); with SNB-19 it was > 100 µM (inactive). In addition, in the experiment on UACC-257, the GI50 was > 100 µM (inactive).

Regarding `Cc1c(C)c(S(=O)(=O)N(CCCN)OCCCN)c(C)c2c1OC(C)(C)CC2`, the GI50 in the experiment with 786-0 is 15.9 µM (inactive); with A549, 15.6 µM (inactive); with CAKI-1, 16.5 µM (inactive); with HCC 2998, 4.14 µM (inactive); in the experiment with HCT-116 it was 16.5 µM (inactive); in the experiment on HCT-15, 15.8 µM. Besides, the GI50 with HOP-62 was 13.3 µM (inactive); in the experiment on HT-29 it was 15.1 µM (inactive); in the experiment on Hs-578T, 14.8 µM (inactive); in the experiment on IGROV-1 it was 7.78 µM (inactive); with M14 it was 14.3 µM (inactive); in the experiment with Malme-3M it was 13.6 µM (inactive). Besides, the GI50 in the experiment on NCI-H460 was 15.8 µM (inactive); in the experiment on OVCAR-4, 8.17 µM (inactive); with OVCAR-5 it was 13 µM (inactive); in the experiment with PC-3 it was 12 µM (inactive); in the experiment on RPMI-8226, 17.6 µM (inactive); in the experiment on SNB-19 it was 11.8 µM (inactive). The GI50 with UACC-257 was 13.7 µM (inactive).

For the compound `Cn1c(N)cc(=O)nc1N`, the GI50 in the experiment on 786-0 is > 100 µM (inactive); in the experiment with A549, > 100 µM (inactive); in the experiment on CAKI-1 it was > 100 µM (inactive); with HCC 2998 it was > 100 µM (inactive); in the experiment on HCT-116, > 100 µM (inactive); with HCT-15, more than 100 µM. The GI50 with HOP-62, in the experiment on HT-29, in the experiment on Hs-578T, in the experiment on IGROV-1, in the experiment on M14 and in the experiment with Malme-3M was > 100 µM (inactive) throughout. For the same compound, the GI50 in the experiment on NCI-H460, in the experiment on OVCAR-4, in the experiment on OVCAR-5, with PC-3, with RPMI-8226 and in the experiment on SF-539 was > 100 µM (inactive) throughout. The GI50 in the experiment with SNB-19 was > 100 µM (inactive).

In the case of `O=C(/C(=C(/Br)I)c1ccccc1)c1ccccc1`, the GI50 with 786-0 is 18.2 µM (inactive); in the experiment on A549, 26.9 µM (inactive); in the experiment with CAKI-1 it was 38.5 µM (inactive); in the experiment on HCC 2998, 13.6 µM (inactive); with HCT-116, 16 µM (inactive); in the experiment on HCT-15 it was 25.1 µM. Further, the GI50 was 17.9 µM (inactive) with HT-29; 40.1 µM (inactive) with Hs-578T; 29.7 µM (inactive) in the experiment on IGROV-1; 16.3 µM (inactive) in the experiment with M14; 14.5 µM (inactive) with Malme-3M; 19.1 µM (inactive) with NCI-H460. Moreover, the GI50 in the experiment with OVCAR-5 was 48.6 µM (inactive); in the experiment on PC-3 it was 28.6 µM (inactive); in the experiment with RPMI-8226 it was 7.1 µM (inactive); in the experiment on SF-539, 17.2 µM (inactive); in the experiment with SNB-19 it was 38.2 µM (inactive); with UACC-257, 17.8 µM (inactive).

Take `C=C(C)[C@@H]1CC[C@]2(C(=O)O)CC[C@]3(C)[C@H](CC[C@@H]4[C@@]5(C)CC(=O)C(C)(C)[C@@H]5CC[C@]43C)[C@@H]12`: the GI50 was 7 µM (inactive) in the experiment on 786-0; 5.56 µM (inactive) in the experiment with A549; 12.2 µM (inactive) in the experiment on CAKI-1; 5.9 µM (inactive) in the experiment on HCC 2998; 4.01 µM (inactive) in the experiment on HCT-116; 8.67 µM in the experiment on HCT-15. Besides, the GI50 in the experiment with HOP-62 was 9.46 µM (inactive); in the experiment with HT-29 it was 7.19 µM (inactive); in the experiment on Hs-578T, 9.48 µM (inactive); in the experiment on IGROV-1 it was 9.86 µM (inactive); in the experiment on M14, 8.65 µM (inactive); with Malme-3M, 8.05 µM (inactive). For the same compound, the GI50 in the experiment with NCI-H460 was 4.95 µM (inactive); in the experiment on OVCAR-4, 15 µM (inactive); in the experiment on OVCAR-5, 11 µM (inactive); in the experiment with PC-3, 7.24 µM (inactive); in the experiment with RPMI-8226 it was 4.48 µM (inactive); with SF-539 it was 6.08 µM (inactive). Moreover, the GI50 is 11.7 µM (inactive) in the experiment with SNB-19 and 7.55 µM (inactive) in the experiment with UACC-257.

Regarding `Oc1ccc(-c2nc(-c3cccnc3)c(-c3ccc(Cl)cc3)[nH]2)cc1`, the GI50 with 786-0 is 13.6 µM (inactive); in the experiment with A549, 15.3 µM (inactive); with CAKI-1 it was 17.9 µM (inactive); in the experiment with HCC 2998, 18.8 µM (inactive); in the experiment with HCT-116, 13.4 µM (inactive); in the experiment on HCT-15 it was 12.1 µM. Also, the GI50 with HOP-62 was 16.9 µM (inactive); in the experiment with HT-29, 15.2 µM (inactive); in the experiment on Hs-578T it was 19.4 µM (inactive); in the experiment on IGROV-1, 10.9 µM (inactive); in the experiment with M14, 13.1 µM (inactive); in the experiment on Malme-3M, 13.5 µM (inactive). Further, the GI50 with NCI-H460 is 11.1 µM (inactive); in the experiment on OVCAR-4, 11.2 µM (inactive); with OVCAR-5, 19.3 µM (inactive); in the experiment with PC-3 it was 5.58 µM (inactive); with RPMI-8226 it was 3.47 µM (inactive); in the experiment on SNB-19 it was 16.5 µM (inactive). In addition, the GI50 in the experiment with UACC-257 is 16.1 µM (inactive).

The values are drawn from ChEMBL document CHEMBL1201862, “PubChem BioAssay data set” (2004).
